Read-outs that look alike come from different tables or passages of the source. Marks after values point to notes of the source that are not given here.
How the values were obtained:
[1] = tested on: patients with chronic inflammatory bowel disease; assay: Clinical disease activity, symptoms, compliance and tolerability during oral iron therapy; format: in vivo, human; conditions: human, in vivo
Protocol: The status of the clinical disease was recorded before (day 1) and after (day 15) the iron therapy. The clinical disease activity was evaluated in patients with Crohn's disease with the “Harvey-Bradshaw Simple Index of Crohn's Disease Activity” (Harvey, R F., Bradshaw, J M., Lancet, 1980; 1:514). The Harvey-Bradshaw Simple Index is based on 5 parameters: general well-being, abdominal pain, stool frequency, abdominal mass and extraintestinal complications. The maximum score is 25 and scores of ≧5 indicate active Crohn's disease.
In patients with colitis ulcerosa, the “Simple Clinical Colitis Activity Index” was recorded (Walmsley, R S., Ayres, R C., Pounder, R E., Allan, R N., Gut 1998; 43; 29-32). The Simple Clinical Colitis Activity Index is based on 6 parameters: general well-being, stool frequency during the day and during the night, urgency of defecation, blood in the stool and extraintestinal complications. The maximum score is 20 and values of ≧4 indicate active colitis ulcerosa.
The Harvey-Bradshaw Simple Index and the Simple Clinical Colitis Activity Index are the same in respect of structure and the clinical significance of a given change in the scores. In order to allow the results of patients with Crohn's disease and colitis ulcerosa to be considered together, the activity scores were calculated as the actual score divided by the maximum score.
All the patients completed the particular Crohn's Disease Activity Index (CDAI) diary card (Best, W R., Becktel, J M., Singleton, J W., Kern, F. Jr., Gastroenterology 1976; 70:439-444) in the week before the start of the iron therapy and during the two weeks of iron therapy. The CDAI diary card comprises daily recording of general well-being, abdominal pain and the number of liquid or very soft stools. The total of seven daily records gives a score for each symptom. The higher the score, the more the patient is adversely affected. The medicament was administered during the study for 14 days and the mean for the two weeks is therefore used for the analysis. The patients also documented the occurrence of nausea before and during the iron therapy.
Patients who discontinued treatment with the medicament because of a deterioration in the symptoms were included in the analysis of the clinical disease activity and the symptom scores. Their disease activity scores were increased by two points, and the symptom scores were increased by one point per day.

[2] = tested on: patients with chronic inflammatory bowel disease; conditions: for B-erythrocyte count / B-haematocrit / B-reticulocyte count / Hypochromic red cells (HYPO) / MCH / MCHC / MCV / Reticulocyte haemoglobin (CHr) / B-haemoglobin / S-ferritin / S-iron / S-soluble transferrin receptor / S-total iron binding capacity: mean (SEM); for B-haemoglobin: blood; for B-ESR / B-leukocyte count / B-platelet count / S-CRP: in vivo; for S-ferritin / S-iron / S-soluble transferrin receptor / S-total iron binding capacity: serum
Protocol: (§1) Analysis of the blood, urine and stool and the clinical evaluation of the disease were carried out on day 1 and 15.
(§2) The tablets were taken in accordance with the manufacturer's recommendations. Patient compliance was defined as the consumption of the tablets handed out, 80% being regarded as satisfactory.
(§3) Blood samples were taken, after fasting during the night, on the morning of day 1 and day 15.
The values were analysed using the Wilcoxon test for pair differences, and the median and range are stated. The comparison of ratios was evaluated with the Fisher Exact test. […] The data were analysed using the GraphPad Prism 4 for Windows statistics software package (GraphPad Software, Inc., San Diego, USA).

[3] = tested on: patients with chronic inflammatory bowel disease; assay: Markers of oxidative stress (plasma, urine) before and after 14 days oral iron therapy; conditions: in vivo
Protocol: as §1, §2, §3
Urine samples were collected on the morning of day 1 and day 15 and analysed for creatinine. Butyl-hydroxy-toluene (BHT) was added to 2 ml urine to a final concentration of 20 mM. The samples were then stored at −80° C. until analysed for urine 8-isoprostaglandin F2α (8-iso-PGF2α).
The values were analysed using the Wilcoxon test for pair differences, and the median and range are stated. The comparison of ratios was evaluated with the Fisher Exact test. P values of less than 0.05 are considered to be statistically significant. The data were analysed using the GraphPad Prism 4 for Windows statistics software package (GraphPad Software, Inc., San Diego, USA).

- B-ESR [2]: 22 (3) mm/h
- B-leukocyte count [2]: 6.9 (0.6) 10^9/l
- B-platelet count [2]: 347 (18) 10^9/l
- S-CRP [2]: 12 (3) mg/l
- B-ESR ([2]; po): 20 (3)* mm/h
- B-leukocyte count ([2]; po): 7.0 (0.7) 10^9/l
- B-platelet count ([2]; po): 343 (21) 10^9/l
- S-CRP ([2]; po): 11 (2) mg/l
- P-beta-carotene [3]: 0.59 (0.13) μmol/l
- P-cysteinyl-glycine [3]: 18.7 (0.9) μmol/l
- P-glutathione [3]: 5.22 (0.30) μmol/l
- P-homocysteine [3]: 6.53 (1.16) μmol/l
- P-malondialdehyde [3]: 275 (21) nmol/l
- P-vitamin A [3]: 1.6 (0.1) μmol/l
- P-vitamin E [3]: 29.3 (1.6) μmol/l
- change in plasma MDA values [3]: did not significantly change
- change in urine iso-PGF2α values [3]: did not significantly change
- P-beta-carotene ([3]; po): 0.57 (0.09) μmol/l
- P-cysteinyl-glycine ([3]; po): 18.5 (1.1) μmol/l
- P-glutathione ([3]; po): 5.43 (0.43) μmol/l
- P-homocysteine ([3]; po): 6.04 (0.94) μmol/l
- P-malondialdehyde ([3]; po): 300 (19) nmol/l
- P-vitamin A ([3]; po): 1.9 (0.3) μmol/l
- P-vitamin E ([3]; po): 28.3 (1.7) μmol/l
Substance: iron(III)-polymaltose complex
- Increased nausea reported [1]: 7/20
- change of clinical disease activity indices [1]: Neither the treatment with iron(II) sulfate (p=0.45) nor the treatment with iron(III)-polymaltose complex (p=0.80) substantially changed the clinical disease activity indices
- influence on general wellbeing or abdominal pain score [1]: Neither iron(II) sulfate nor iron(III)-polymaltose complex had an influence
- patients who discontinued the treatment (intolerable bowel movements, abdominal pain and nausea) [1]: one patient
- tolerability of the iron therapy [1]: good tolerability
- increase of blood haemoglobin ([2]; 14 days treatment): Neither iron(II) sulfate nor iron(III)-polymaltose complex increased the blood haemoglobin
- B-erythrocyte count ([2]; after 14 days oral treatment): 4.7 (0.1) 10^12/l
- B-haematocrit ([2]; after 14 days oral treatment): 40 (1) %
- B-reticulocyte count ([2]; after 14 days oral treatment): 0.075 (0.008)* 10^12/l
- Hypochromic red cells (HYPO) ([2]; after 14 days oral treatment): 10.6 (2.8) %
- MCH ([2]; after 14 days oral treatment): 27 (0.7) pg
- MCHC ([2]; after 14 days oral treatment): 31.2 (0.3) g/dl
- MCV ([2]; after 14 days oral treatment): 85 (1.6) fl
- Reticulocyte haemoglobin (CHr) ([2]; after 14 days oral treatment): 29.5 (0.7) pg
- B-erythrocyte count ([2]; before treatment): 4.7 (0.1) 10^12/l
- B-haematocrit ([2]; before treatment): 39 (1) %
- B-reticulocyte count ([2]; before treatment): 0.059 (0.006) 10^12/l
- Hypochromic red cells (HYPO) ([2]; before treatment): 10.3 (3.0) %
- MCH ([2]; before treatment): 27 (0.7) pg
- MCHC ([2]; before treatment): 31.6 (0.3) g/dl
- MCV ([2]; before treatment): 84 (1.8) fl
- Reticulocyte haemoglobin (CHr) ([2]; before treatment): 29.1 (0.8) pg
- B-haemoglobin ([2]; after 14 days oral treatment): 12.5 (0.3) g/dl
- B-haemoglobin ([2]; before treatment): 12.5 (0.3) g/dl
- increase in blood reticulocyte count ([2]; mean of differences after vs before 14 days treatment): 1.6e+10 L⁻¹
- S-ferritin ([2]; after 14 days oral treatment): 13 (2) μg/l
- S-iron ([2]; after 14 days oral treatment): 8.9 (1.5) μmol/l
- S-soluble transferrin receptor ([2]; after 14 days oral treatment): 2.03 (0.21) mg/l
- S-total iron binding capacity ([2]; after 14 days oral treatment): 77 (2) μmol/l
- S-ferritin ([2]; before treatment): 13 (2) μg/l
- S-iron ([2]; before treatment): 8.8 (0.8) μmol/l
- S-soluble transferrin receptor ([2]; before treatment): 2.08 (0.24) mg/l
- S-total iron binding capacity ([2]; before treatment): 77 (2) μmol/l

Reference: US20080234226A1, “Use Of Iron(III) Complex Compounds For The Preparation Of A Medicament For Oral Treatment Of Iron Deficiency States In Patients With Chronic Inflammatory Bowel Disease” (VIFOR (INTERNATIONAL) AG, priority 2005, published 2008)
